target: T1, hMAGL (Homo sapiens, UniProt Q99685); assay: 2-AG assay: MAGL inhibition, hydrolysis of 2-arachidonoylglycerol to arachidonic acid followed by mass spectrometry; assay type: biochemical
T1 sequence (Q99685 1-303): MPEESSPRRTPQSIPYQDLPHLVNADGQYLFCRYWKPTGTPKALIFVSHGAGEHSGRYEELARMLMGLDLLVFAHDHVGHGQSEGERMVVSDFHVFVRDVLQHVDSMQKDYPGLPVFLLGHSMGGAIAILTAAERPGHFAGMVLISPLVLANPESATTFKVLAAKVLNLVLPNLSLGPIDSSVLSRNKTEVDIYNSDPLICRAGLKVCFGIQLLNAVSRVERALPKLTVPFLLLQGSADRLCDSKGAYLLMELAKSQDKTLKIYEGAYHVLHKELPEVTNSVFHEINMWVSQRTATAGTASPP
Summary of the method: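 MAGL preincubated with compound 15 min at RT in 50 mM Tris, 1 mM EDTA, 0.01% Tween-20, 2.5% DMSO; reaction started with 8 μM 2-AG (final), […], 30 min at RT. Quenched with acetonitrile containing d8-arachidonic acid; arachidonic acid quantified by RapidFire SPE-triple quad MS as arachidonic acid/d8 ratio.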

IC50 | Compound
636 nM | Cn1cnc(C#N)c1CN1CC2(C1)CN(C(=O)N1CC3(CC(n4cnc(C(F)(F)F)n4)C3)C1)C2 [Example 280, 1-methyl-5-[[2-[6-[3-(trifluoromethyl)-1,2,4-triazol-1-yl]-2-azaspiro[3.3]heptane-2-carbonyl]-2,6-diazaspiro[3.3]heptan-6-yl]methyl]imidazole-4-carbonitrile]
164 nM | Cn1cnc(C#N)c1CN1CC2(C1)CN(C(=O)N1CC3(CC(n4cnc(C5CC5)n4)C3)C1)C2 [Example 281, 5-[[2-[6-(3-cyclopropyl-1,2,4-triazol-1-yl)-2-azaspiro[3.3]heptane-2-carbonyl]-2,6-diazaspiro[3.3]heptan-6-yl]methyl]-1-methyl-imidazole-4-carbonitrile]
3730 nM | Cn1cnc(C#N)c1CN1CC2(C1)CN(C(=O)N1CC3(CC(n4cnc(C5(O)CC5)n4)C3)C1)C2 [Example 282, 5-[[2-[6-[3-(1-hydroxycyclopropyl)-1,2,4-triazol-1-yl]-2-azaspiro[3.3]heptane-2-carbonyl]-2,6-diazaspiro[3.3]heptan-6-yl]methyl]-1-methyl-imidazole-4-carbonitrile]
8 nM | O=C(N1CC2(CC(n3cnc(C4CC4)n3)C2)C1)N1CC2(CN(Cc3cc(C4CC4)n[nH]3)C2)C1 [Example 283, [6-[(3-cyclopropyl-1H-pyrazol-5-yl)methyl]-2,6-diazaspiro[3.3]heptan-2-yl]-[6-(3-cyclopropyl-1,2,4-triazol-1-yl)-2-azaspiro[3.3]heptan-2-yl]methanone]
2310 nM | O=C(N1CC2(CC(n3cnc(C(F)(F)F)n3)C2)C1)N1CC2(CN(Cc3cc[nH]n3)C2)C1 [Example 284, [6-(1H-pyrazol-3-ylmethyl)-2,6-diazaspiro[3.3]heptan-2-yl]-[6-[3-(trifluoromethyl)-1,2,4-triazol-1-yl]-2-azaspiro[3.3]heptan-2-yl]methanone]
13.4 nM | O=C(N1CC2(CC(n3cnc(C4CC4)n3)C2)C1)N1CC2(CN(Cc3cnn4ccccc34)C2)C1 [Example 285, [6-(3-cyclopropyl-1,2,4-triazol-1-yl)-2-azaspiro[3.3]heptan-2-yl]-[6-(pyrazolo[1,5-a]pyridin-3-ylmethyl)-2,6-diazaspiro[3.3]heptan-2-yl]methanone]
120 nM | CCc1nsc(CN2CC3(C2)CN(C(=O)N2CC4(CC(n5cnc(C(F)(F)F)n5)C4)C2)C3)n1 [Example 286, [6-[(3-ethyl-1,2,4-thiadiazol-5-yl)methyl]-2,6-diazaspiro[3.3]heptan-2-yl]-[6-[3-(trifluoromethyl)-1,2,4-triazol-1-yl]-2-azaspiro[3.3]heptan-2-yl]methanone]
135 nM | CCc1nsc(CN2CC3(C2)CN(C(=O)N2CC4(CC(n5cnc(C6CC6)n5)C4)C2)C3)n1 [Example 287, [6-(3-cyclopropyl-1,2,4-triazol-1-yl)-2-azaspiro[3.3]heptan-2-yl]-[6-[(3-ethyl-1,2,4-thiadiazol-5-yl)methyl]-2,6-diazaspiro[3.3]heptan-2-yl]methanone]
2.43 nM | Cn1nc(C(F)(F)F)cc1CC1CC2(C1)CN(C(=O)N1CC3(CC(n4cnc(C5(O)CC5)n4)C3)C1)C2 [Example 288, [6-[3-(1-hydroxycyclopropyl)-1,2,4-triazol-1-yl]-2-azaspiro[3.3]heptan-2-yl]-[6-[[2-methyl-5-(trifluoromethyl)pyrazol-3-yl]methyl]-2-azaspiro[3.3]heptan-2-yl]methanone]
2.9 nM | Cn1cc(C(F)(F)F)c(CC2CC3(C2)CN(C(=O)N2CC4(CC(n5cnc(C6(O)CC6)n5)C4)C2)C3)n1 [Example 289, [6-[3-(1-hydroxycyclopropyl)-1,2,4-triazol-1-yl]-2-azaspiro[3.3]heptan-2-yl]-[6-[[1-methyl-4-(trifluoromethyl)pyrazol-3-yl]methyl]-2-azaspiro[3.3]heptan-2-yl]methanone]
0.86 nM | O=C(N1CC2(CC(Cc3cnn(CC(F)(F)F)c3)C2)C1)N1CC2(CC(c3cc(C4CC4)n[nH]3)C2)C1 [Example 290, [6-(3-cyclopropyl-1H-pyrazol-5-yl)-2-azaspiro[3.3]heptan-2-yl]-[6-[[1-(2,2,2-trifluoroethyl)pyrazol-4-yl]methyl]-2-azaspiro[3.3]heptan-2-yl]methanone]
10.8 nM | O=C(N1CC2(CC(Cc3cnn(CC(F)(F)F)c3)C2)C1)N1CC2(CC(n3cnc(C4(O)CC4)n3)C2)C1 [Example 291, [6-[3-(1-hydroxycyclopropyl)-1,2,4-triazol-1-yl]-2-azaspiro[3.3]heptan-2-yl]-[6-[[1-(2,2,2-trifluoroethyl)pyrazol-4-yl]methyl]-2-azaspiro[3.3]heptan-2-yl]methanone]

Second part, the molecule before the results:

Compound | IC50
CC(C)(C)c1noc(CN2CC3(C2)CN(C(=O)N2CC4(CC(n5cnc(C6CC6)n5)C4)C2)C3)n1 [Example 266, [6-[(3-tert-butyl-1,2,4-oxadiazol-5-yl)methyl]-2,6-diazaspiro[3.3]heptan-2-yl]-[6-(3-cyclopropyl-1,2,4-triazol-1-yl)-2-azaspiro[3.3]heptan-2-yl]methanone] | 2 nM
Cc1onc(C2CC2)c1CN1CC2(C1)CN(C(=O)N1CC3(CC(n4cnc(C(F)(F)F)n4)C3)C1)C2 [Example 267, [6-[(3-cyclopropyl-5-methyl-isoxazol-4-yl)methyl]-2,6-diazaspiro[3.3]heptan-2-yl]-[6-[3-(trifluoromethyl)-1,2,4-triazol-1-yl]-2-azaspiro[3.3]heptan-2-yl]methanone] | 66.6 nM
Cc1onc(C2CC2)c1CN1CC2(C1)CN(C(=O)N1CC3(CC(n4cnc(C5CC5)n4)C3)C1)C2 [Example 268, [6-[(3-cyclopropyl-5-methyl-isoxazol-4-yl)methyl]-2,6-diazaspiro[3.3]heptan-2-yl]-[6-(3-cyclopropyl-1,2,4-triazol-1-yl)-2-azaspiro[3.3]heptan-2-yl]methanone] | 8.8 nM
Cc1onc(C2CC2)c1CN1CC2(C1)CN(C(=O)N1CC3(CC(n4cnc(C5(O)CC5)n4)C3)C1)C2 [Example 269, [6-[(3-cyclopropyl-5-methyl-isoxazol-4-yl)methyl]-2,6-diazaspiro[3.3]heptan-2-yl]-[6-[3-(1-hydroxycyclopropyl)-1,2,4-triazol-1-yl]-2-azaspiro[3.3]heptan-2-yl]methanone] | 311 nM
Cn1nc(C2CC2)cc1CN1CC2(C1)CN(C(=O)N1CC3(CC(c4cc(C5CC5)n[nH]4)C3)C1)C2 [Example 270, [6-[(5-cyclopropyl-2-methyl-pyrazol-3-yl)methyl]-2,6-diazaspiro[3.3]heptan-2-yl]-[6-(3-cyclopropyl-1H-pyrazol-5-yl)-2-azaspiro[3.3]heptan-2-yl]methanone] | 4.89 nM
Cn1nc(C2CC2)cc1CN1CC2(C1)CN(C(=O)N1CC3(CC(n4cnc(C(F)(F)F)n4)C3)C1)C2 [Example 271] | 14.8 nM
Cn1nc(C2CC2)cc1CN1CC2(C1)CN(C(=O)N1CC3(CC(n4cnc(C5CC5)n4)C3)C1)C2 [Example 272, [6-[(5-cyclopropyl-2-methyl-pyrazol-3-yl)methyl]-2,6-diazaspiro[3.3]heptan-2-yl]-[6-(3-cyclopropyl-1,2,4-triazol-1-yl)-2-azaspiro[3.3]heptan-2-yl]methanone] | 7 nM
O=C(N1CC2(CC(n3cnc(C(F)(F)F)n3)C2)C1)N1CC2(CN(Cc3cc(C4CCC4)[nH]n3)C2)C1 [Example 273, [6-[(5-cyclobutyl-1H-pyrazol-3-yl)methyl]-2,6-diazaspiro[3.3]heptan-2-yl]-[6-[3-(trifluoromethyl)-1,2,4-triazol-1-yl]-2-azaspiro[3.3]heptan-2-yl]methanone] | 12 nM
O=C(N1CC2(CC(n3cnc(C4CC4)n3)C2)C1)N1CC2(CN(Cc3cc(C4CCC4)[nH]n3)C2)C1 [Example 274, [6-[(5-cyclobutyl-1H-pyrazol-3-yl)methyl]-2,6-diazaspiro[3.3]heptan-2-yl]-[6-(3-cyclopropyl-1,2,4-triazol-1-yl)-2-azaspiro[3.3]heptan-2-yl]methanone] | 5.29 nM
CC(C)(C)n1nccc1CN1CC2(C1)CN(C(=O)N1CC3(CC(n4cnc(C(F)(F)F)n4)C3)C1)C2 [Example 275, [6-[(2-tert-butylpyrazol-3-yl)methyl]-2,6-diazaspiro[3.3]heptan-2-yl]-[6-[3-(trifluoromethyl)-1,2,4-triazol-1-yl]-2-azaspiro[3.3]heptan-2-yl]methanone] | 132 nM
CC(C)(C)n1nccc1CN1CC2(C1)CN(C(=O)N1CC3(CC(n4cnc(C5CC5)n4)C3)C1)C2 [Example 276, [6-[(2-tert-butylpyrazol-3-yl)methyl]-2,6-diazaspiro[3.3]heptan-2-yl]-[6-(3-cyclopropyl-1,2,4-triazol-1-yl)-2-azaspiro[3.3]heptan-2-yl]methanone] | 13.6 nM
Cn1nccc1CN1CC2(C1)CN(C(=O)N1CC3(CC(n4cnc(C5CC5)n4)C3)C1)C2 [Example 277, [6-(3-cyclopropyl-1,2,4-triazol-1-yl)-2-azaspiro[3.3]heptan-2-yl]-[6-[(2-methylpyrazol-3-yl)methyl]-2,6-diazaspiro[3.3]heptan-2-yl]methanone] | 355 nM
O=C(N1CC2(CC(n3cnc(C4CC4)n3)C2)C1)N1CC2(CN(Cc3cnc(C(F)F)s3)C2)C1 [Example 279, [6-(3-cyclopropyl-1,2,4-triazol-1-yl)-2-azaspiro[3.3]heptan-2-yl]-[6-[[2-(difluoromethyl)thiazol-5-yl]methyl]-2,6-diazaspiro[3.3]heptan-2-yl]methanone] | 9.22 nM
